Assay results: CN106905199A, “一种基于聚集诱导发光原理用于选择性检测半胱氨酸的荧光试剂的合成及应用” (Gannan Normal University, priority 2017, dated 2017)

Experiments:
[1] = Selectivity test of TPENNO2: GSH; conditions: 300 μM GSH, 37℃, 30 min, Ex=341 nm
[2] = Reaction kinetics of TPENNO2 with the thiol of Cys
[3] = Selectivity test of TPENNO2: Hcy; conditions: 300 μM Hcy, 37℃, 30 min, Ex=341 nm
[4] = Response time of TPENNO2 to Cys (fluorescence vs incubation time); conditions: 25 μM TPENNO2, PBS (50 mM, pH 7.4, 2.5% DMSO), 200 μM Cys, 37℃
[5] = Reaction kinetics of TPENNO2 with the thiol of GSH
[6] = test system: thiol compounds in HeLa cells [HeLa细胞内巯基化合物]; assay: Fluorescence imaging of intracellular thiols in HeLa cells; format: cell-based, human
[7] = Selectivity test of TPENNO2: essential amino acids; conditions: 25 μM TPENNO2 in PBS, 300 μM analyte, 37℃, 30 min, Ex=341 nm

SMILES: O=[N+]([O-])c1ccc(S(=O)(=O)Nc2ccc(C(=C(c3ccccc3)c3ccccc3)c3ccccc3)cc2)c([N+](=O)[O-])c1 [TPENNO2]
- change of fluorescence intensity after reaction with GSH ([1]; 25 μM TPENNO2 in PBS): 没有明显增强
- interference of GSH with Cys detection [1]: 干扰均较小
- first-order reaction kinetic constant with the thiol of Cys [2]: 0.13 min⁻¹
- change of fluorescence intensity after reaction with Hcy ([3]; 25 μM TPENNO2 in PBS): 没有明显增强
- interference of Hcy with Cys detection [3]: 干扰均较小
- incubation time after which fluorescence intensity is essentially saturated [4]: 30 min
- first-order reaction kinetic constant with the thiol of GSH [5]: 0.0048 min⁻¹
- fluorescence signal in HeLa cells ([6]; 4 μM TPENNO2, 20 min, no pretreatment, Ex 405 nm, 450-550 nm collected): 绿色荧光信号
- fluorescence signal in HeLa cells after Cys pretreatment ([6]; 0.5 mM Cys 24 h, then 4 μM TPENNO2, 20 min): 荧光信号增强
- fluorescence signal in HeLa cells after NEM pretreatment ([6]; 0.5 mM NEM (N-ethylmaleimide, thiol-consuming) 15 min, then 4 μM TPENNO2, 20 min): 荧光信号减弱
- change of fluorescence intensity after reaction with essential amino acids other than Cys [7]: 没有明显增强
